Test results as given in patent publication US10765687B2, “Methods and compounds to inhibit enveloped virus release” (Northwestern University, priority 2012, dated 2020).
Values joined by “and” are separate entries in the source; they are usually repeats but may differ in a detail not shown here. Equal values may be shown once. Read-outs that look alike come from different tables or passages of the source.

Columns and labels:
COS-1 cells [1] = conditions: K21 100 μM, N20 20 μM; for Cytotoxicity, average of the independent experiments: average in parentheses, DMSO 21%; for Cytotoxicity (blue cells/total cells x 100): single count, DMSO 24%, 18%
Procedure: The standard trypan blue assay, where dead cells are blue when visualized under a light microscope, was used to determine the percent of dead cells in the culture. Briefly, cells from a well of DMSO-treated, K21-treated and N20-treated samples were dislodged from the well with a stream of 1 ml PBS, collected, pelleted at 200 rpm for 2 min, and suspended in 300 μl trypsin-EDTA, incubated at 37° C. for 30 min. A diluted cell suspension was prepared by mixing 200 μl of the trypsin-treated cell suspension and 800 μl of PBS was used for the assay. For the assay itself: from the 1 ml of diluted cell suspension, 50 μl was taken an placed on paraffin and to this was mixed in 50 μl of 0.4% Trypan Blue dye in PBS, after exactly 2 minutes later, the mixture was loaded on a hematocytometer. The hematocytometer was placed on the light microscope stage and a blue cell count and an all cells count (blue and not blue cells) obtained. Two 50 μl aliquots were counted per sample.

HIV-1 [2] = experiment: Specific infectivity by MAGI assay; type: cell-based; conditions: versus DMSO controls
Procedure: The amount of infectious virus normalized to ng of p24 obtained from the ELISA assay in the tissue cultures was determined by multinuclear activation of a galactosidase indicator (MAGI) assay. In this assay, infectious unit is scored by the blue color that is assumed by infected MAGI cells (Hela cells that have been engineered to express the indicator when the infecting particle is able to simulated natural infection up until expression of HIV-1 Tat).

COS-1 cells [3] = experiment: Cell growth based on cell lysate actin levels (Western); conditions: versus DMSO-treated
Procedure: The levels of actin of cell lysates prepared from DMSO-treated, […]-treated and N20-treated cells were determined by SDS-PAGE followed by Western analysis where the immunoblot were probed with mouse anti-actin antibody.

HIV-1 [4] = experiment: Cell-based inhibition assay in transfected COS-1 cells, ELISA p24 capture assay of tissue culture media; conditions: K21 100 μM, N20 20 μM, 24-hr treatment
Procedure: COS-1 cells were seeded on twelve-well plates and grown in 1 ml of DMEM with 10% fbs and 1% Penicillin/Streptomycin. The following day, well were confluency was ˜60% were selected for co-transfection with an NL4-3 derived construct (pdeltaEnv) and pIIIEnv for expression of HIV-1 virus-encoded proteins. Inhibitor treatment was done on two sets of transfected cells: one, at 5 hr post-transfection and the other, at 24 hours post-transfection. In each case, the tissue culture media was removed and replaced with treatment Nedd4 inhibitor (100 μM final concentration for K21 and 20 μM final concentration for N20) or DMSO control (1% final concentration) in DMEM with 10% FBS, 1% Penicillin/Streptomycin, 5 mM MgCl2, and 0.5 mM CaCl2. After a 24-hr treatment period, the tissue culture media was collected, cleared of debris by running through a 0.45 um syringe filter and analyzed for amount of virus particles by Elisa p24 capture assay.
At 100 μM, K21 was inhibitory to virus particle release. […] This was true whether the inhibitor was added at 5 hrs post-transfection or at 24 hrs post transfection. At 20 μM, N20 was also exerted an inhibitory effect on virus particle release but it was different from that of K21.

HIV-1 [5] = experiment: HIV-1 release from T-cells in culture, HIV-1 CA protein in media by ELISA; conditions: T cells contacted with compound then infected with HIV-1
Source text: These compounds were further evaluated as antiviral inhibitors of virus budding and release using the methods disclosed herein.
WWP2 (SEQ ID NO:24) = target: T1, WWP2 (SEQ ID NO:24) (Homo sapiens, UniProt O00308); experiment: Epic label-free binding assay of compounds to immobilized WWP2; conditions: Epic label-free binding, WWP2 as target; read-out: Kd
T1 construct: poly-His (pET28b leader with thrombin site) (N, cleaved yes); made in house; host or cells: E. coli BL21 DE3
Procedure: Another preferred embodiment of an in vitro screening method is depicted in FIG. 3. In this method, the ability of the candidate compound 204 to directly interact with the cellular ESCRT-linked component protein (for example, Nedd4 family of polypeptides [for example, WWP1 (SEQ ID NO:29), WWP2 (SEQ ID NO:24), Nedd4 L, among others]) or TGS101 is evaluated. According to this embodiment, a cellular ESCRT component protein 202 is preferably immobilized to a substrate 201 (for example, a microtiter plate) via a linking group 203 (for example, an amine group). The substrate preferably includes an optional reference area that provides a control to prevent non-specific interactions with non-mobilized ESCRT complex protein 202 with substrate 201. The substrate 201 is washed and irradiated with broadband light so that a baseline refractive index is measured. Test compound 204 is added to the system to permit its binding to the immobilized ESCRT component protein 202 to form a resultant associative complex 205. The substrate 201 is irradiated with broadband light again to detect a change in the wavelength of the reflected light.
High sensitivity biochemical plates (PerkinElmer Cat. No. 6057468) are used in WWP2 (SEQ ID NO:24) binding assay to maximize protein immobilization. […] Because compound stocks are in DMSO that affects the Epic label-free readout, the compound plates were prepared by Echo550 acoustic dispenser to keep DMSO content balanced for all wells. […]
The binding of compounds to WWP2 (SEQ ID NO:24) was measured on the EnSpire label-free plate reader. After 25 minutes of thermal equilibration, a baseline reading was taken on the label-free plates with protein immobilized in assay buffer. […] The final reading was taken after 25 min of thermal equilibration and over a period of 60 minutes. The label-free responses were measured as shifts in reflected wavelength and were expressed in picometers (pm). Results were analyzed using the EnSpire label-free user interface software. […]

[6] = inhibitor added 5 hrs post-transfection
[7] = inhibitor added 24 hrs post-transfection

T1 sequence (O00308 with tags, fused parts or gaps): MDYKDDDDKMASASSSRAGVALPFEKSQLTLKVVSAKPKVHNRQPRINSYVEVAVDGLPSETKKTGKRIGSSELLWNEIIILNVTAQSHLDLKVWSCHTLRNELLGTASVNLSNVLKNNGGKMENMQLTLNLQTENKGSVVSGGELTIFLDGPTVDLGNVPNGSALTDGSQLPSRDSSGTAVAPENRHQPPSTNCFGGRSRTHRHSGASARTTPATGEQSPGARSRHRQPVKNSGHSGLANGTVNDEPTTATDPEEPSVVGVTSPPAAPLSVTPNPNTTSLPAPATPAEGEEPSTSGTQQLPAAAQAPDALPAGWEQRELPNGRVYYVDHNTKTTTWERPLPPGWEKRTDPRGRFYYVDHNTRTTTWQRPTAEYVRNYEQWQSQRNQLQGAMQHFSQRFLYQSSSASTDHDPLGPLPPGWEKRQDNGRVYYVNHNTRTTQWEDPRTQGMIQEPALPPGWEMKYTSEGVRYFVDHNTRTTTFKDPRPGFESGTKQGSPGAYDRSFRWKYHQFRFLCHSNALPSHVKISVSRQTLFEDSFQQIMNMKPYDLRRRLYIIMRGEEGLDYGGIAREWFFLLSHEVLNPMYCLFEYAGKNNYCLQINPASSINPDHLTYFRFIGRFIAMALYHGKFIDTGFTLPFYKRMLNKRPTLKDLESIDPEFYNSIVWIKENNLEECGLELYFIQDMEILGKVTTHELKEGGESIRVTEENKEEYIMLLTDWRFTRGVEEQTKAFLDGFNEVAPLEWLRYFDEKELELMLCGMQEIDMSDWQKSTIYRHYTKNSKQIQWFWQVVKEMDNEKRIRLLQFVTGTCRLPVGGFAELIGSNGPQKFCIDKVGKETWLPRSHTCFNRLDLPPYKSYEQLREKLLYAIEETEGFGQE

SMILES: Cl.NC(CO)C(=O)NNCc1ccc(O)c(O)c1O (racemic) [Benserazide Hydrochloride, (RS)-2-amino-3-hydroxy-N′-(2,3,4-trihydroxybenzyl) propanehydrazide hydrochloride]
- Cytotoxicity, average of the independent experiments (COS-1 cells [1]): (31%)
- Cytotoxicity (blue cells/total cells x 100) (COS-1 cells [1]; listed as K21, hydrochloride): 34% and 28%
- Counts of blue cells per ng p24 (specific infectivity) (HIV-1 [2]): comparable
- Intensity of actin bands of cell lysates (COS-1 cells [3]): essentially comparable for all samples
- Amount of virus particle detected in tissue culture media (HIV-1 [4]; [6]): reduction in the amount of virus particle detected
- Amount of virus particle detected in tissue culture media (HIV-1 [4]; [7]): reduction in the amount of virus particle detected
- HIV-1 particle release (in words) (HIV-1 [5]): significant reduction in HIV-1 particle release
- Kd (WWP2 (SEQ ID NO:24)): 7.9 µM

SMILES: CN(C)[C@@H]1C(O)=C(C(N)=O)C(=O)[C@@]2(O)C(=O)C3=C(O)c4c(O)cccc4[C@@](C)(O)[C@H]3[C@H](O)[C@@H]12 [Oxytetracycline, (4S,4aR,5S,5aR,6S,12aS)-4-(dimethylamino)-3,5,6,10,11,12a-hexahydroxy-6-methyl-1,12-dioxo-1,4,4a,5,5a,6,12,12a-octahydrotetracene-2-carboxamide]
- Cytotoxicity, average of the independent experiments (COS-1 cells [1]): (32%)
- Cytotoxicity (blue cells/total cells x 100) (COS-1 cells [1]; listed as N20): 29% and 35%
- Counts of blue cells per ng p24 (specific infectivity) (HIV-1 [2]): comparable
- Intensity of actin bands of cell lysates (COS-1 cells [3]): essentially comparable for all samples
- Amount of virus particle detected in tissue culture media (HIV-1 [4]; [6]): reduction in the amount of virus particle detected
- Amount of virus particle detected in tissue culture media (HIV-1 [4]; [7]): reduction was not seen
- HIV-1 particle release (in words) (HIV-1 [5]): significant reduction in HIV-1 particle release
- Kd (WWP2 (SEQ ID NO:24)): 10.6 µM
